Test results as given in ChEMBL document CHEMBL1136846, “Investigation on the role of the tetrazole in the binding of thiotetrazolylacetanilides with HIV-1 wild type and K103N/Y181C double mutant reverse transcriptases” (Bioorg Med Chem Lett, 2009).

Columns and labels:
[1] = biological target: Human immunodeficiency virus type 1 reverse transcriptase (Human immunodeficiency virus 1, UniProt Q72547); experiment: Inhibition of wild type HIV1 reverse transcriptase by scintillation proximity assay
[2] = system: Human immunodeficiency virus 1; experiment: Antiviral activity against HIV1 infected in human C8166 cells assessed as inhibition of viral replication after 3 days by ELISA; type: functional, organism-based; conditions: Human immunodeficiency virus 1, C8166, 72 h
[3] = system: Human immunodeficiency virus 1; experiment: Antiviral activity against HIV1 with transcriptase […] mutation infected in human C8166 cells assessed as inhibition of viral replication after 3 days by ELISA; type: functional, organism-based; conditions: Human immunodeficiency virus 1, C8166, 72 h

`Cc1[nH]nc(OCC(=O)Nc2ccc(C#CC(C)(C)C(=O)O)cc2Cl)c1-c1ccc(C(C)(C)C)cc1Cl` showed an IC50 [1] of 2400 nM, an EC50 [2] of 3880 nM and an EC50 [3] of 73 nM.

For `Cc1ccc(-n2ncc(C)c2SCC(=O)Nc2ccc(-c3ccc(CC(=O)O)cc3)cc2Cl)c(Cl)c1`, the IC50 [1] was greater than 10000 nM.

`C/C(=C/CCC(=O)Nc1ccc(-c2ccc(CC(=O)O)cc2)cc1Cl)c1ccc(C)cc1Cl` was tested, and the IC50 [1] was 2.4 nM.

With `CC(C)(C)c1ccc(-c2c[nH]nc2OCC(=O)Nc2ccc(-c3ccc(CC(=O)O)cc3)cc2Cl)c(Cl)c1` the IC50 [1] was greater than 3300 nM, the EC50 [2] was 4870 nM and the EC50 [3] was 444 nM.

Compound `Cc1ccc(-n2nccc2SCC(=O)Nc2ccc(-c3ccc(CC(=O)O)cc3)cc2Cl)c(Cl)c1` has an IC50 [1] of 7.9 nM.

For `Cc1ccc(-n2c(C)cnc2SCC(=O)Nc2ccc(-c3ccc(CC(=O)O)cc3)cc2Cl)c(Cl)c1`, the IC50 [1] was 9.5 nM.

For `Cc1ccc(-c2ccccc2SCC(=O)Nc2ccc(-c3ccc(CC(=O)O)cc3)cc2Cl)c(Cl)c1`, the IC50 [1] was 18 nM.

With `Cc1ccc(-n2cc(C)nc2SCC(=O)Nc2ccccc2Cl)c(Cl)c1` the IC50 [1] was greater than 1000 nM.

Work on `Cc1ccc(-c2ncoc2SCC(=O)Nc2ccc(-c3ccc(CC(=O)O)cc3)cc2Cl)c(Cl)c1` yielded an IC50 [1] of 365 nM.

`Cc1[nH]nc(OCC(=O)Nc2ccc(C#CC(C)(C)CO)cc2Cl)c1-c1ccc(C(C)(C)C)cc1Cl` was tested, and the IC50 [1] was greater than 3330 nM, the EC50 [2] was greater than 5000 nM and the EC50 [3] was 177 nM.

For `Cc1ccc(-c2c(SCC(=O)Nc3ccc(-c4ccc(CC(=O)O)cc4)cc3Cl)cnn2C)c(Cl)c1`, the IC50 [1] was 1.9 nM.

For `Cc1ccc(-n2nncc2SCC(=O)Nc2ccc(-c3ccc(CC(=O)O)cc3)cc2Cl)c(Cl)c1`, the IC50 [1] was 2.4 nM.

`Cc1ccc(-n2nnnc2SCC(=O)Nc2ccc(-c3ccc(OCC(=O)O)cc3)cc2Cl)c(Cl)c1` showed an IC50 [1] of 1.9 nM.

`Cc1ccc(-c2c(SCC(=O)Nc3ccc(-c4ccc(OCC(=O)O)cc4)cc3Cl)ccn2C)c(Cl)c1` showed an IC50 [1] greater than 1000 nM.

`C/C(=C\CCC(=O)Nc1ccc(-c2ccc(OCC(=O)O)cc2)cc1Cl)c1ccc(C)cc1Cl` was tested, and the IC50 [1] was 272 nM.

Work on `Cc1ccc(-n2nccc2OCC(=O)Nc2ccc(-c3ccc(CC(=O)O)cc3)cc2Cl)c(Cl)c1` yielded an IC50 [1] of 18 nM.

`Cc1ccc(-c2nnsc2SCC(=O)Nc2ccc(-c3ccc(CC(=O)O)cc3)cc2Cl)c(Cl)c1` gave an IC50 [1] of 2 nM.

With `Cc1[nH]nc(OCC(=O)Nc2ccc(-c3ccc(CC(=O)O)cc3)cc2Cl)c1-c1ccc(C(C)(C)C)cc1Cl` the IC50 [1] was 2090 nM.

In the case of `Cc1ccc(-c2ncsc2SCC(=O)Nc2ccc(-c3ccc(CC(=O)O)cc3)cc2Cl)c(Cl)c1`, the IC50 [1] is reported as 200 nM.

`C/C(=C/CCC(=O)Nc1ccc(-c2ccc(OCC(=O)O)cc2)cc1Cl)c1ccc(C)cc1Cl` was tested, and the IC50 [1] was 15 nM.

`Cc1ccc(-c2ccccc2OCC(=O)Nc2ccc(-c3ccc(CC(=O)O)cc3)cc2Cl)c(Cl)c1` was tested, and the IC50 [1] was 177 nM.
